The source made the active and inactive calls.
Tests used:
Assay type in all cases: functional
[1] = biological target: Fibroblast growth factor receptor 1 (Homo sapiens, UniProt P11362)
[2] = biological target: Macrophage colony-stimulating factor 1 receptor (Homo sapiens, UniProt P07333);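 also: value comes from the Navigating the Kinome screening panel, CSF1R member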
[3] = biological target: 5'-AMP-activated protein kinase catalytic subunit alpha-1 (Homo sapiens, UniProt Q13131)
[4] = biological target: Dual specificity protein kinase CLK2 (Homo sapiens, UniProt P49760)
Dual specificity protein kinase CLK2, sequence (P49760 whole entry, canonical isoform): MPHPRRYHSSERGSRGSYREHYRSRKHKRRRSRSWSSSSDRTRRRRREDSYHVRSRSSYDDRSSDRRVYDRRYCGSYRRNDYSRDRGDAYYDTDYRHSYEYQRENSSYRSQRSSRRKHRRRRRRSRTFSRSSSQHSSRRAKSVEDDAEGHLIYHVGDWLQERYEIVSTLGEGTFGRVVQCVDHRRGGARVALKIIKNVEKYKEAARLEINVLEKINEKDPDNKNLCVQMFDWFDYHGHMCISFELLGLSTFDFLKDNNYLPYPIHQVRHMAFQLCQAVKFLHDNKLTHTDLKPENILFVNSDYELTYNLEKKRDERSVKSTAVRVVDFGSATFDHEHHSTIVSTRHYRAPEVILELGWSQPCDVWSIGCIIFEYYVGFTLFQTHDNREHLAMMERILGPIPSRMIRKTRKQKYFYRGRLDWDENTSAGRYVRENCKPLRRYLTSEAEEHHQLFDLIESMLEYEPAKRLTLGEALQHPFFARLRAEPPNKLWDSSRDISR

[5] = biological target: Casein kinase I isoform alpha (Homo sapiens, UniProt P48729)
Casein kinase I isoform alpha, sequence (P48729 whole entry, canonical isoform): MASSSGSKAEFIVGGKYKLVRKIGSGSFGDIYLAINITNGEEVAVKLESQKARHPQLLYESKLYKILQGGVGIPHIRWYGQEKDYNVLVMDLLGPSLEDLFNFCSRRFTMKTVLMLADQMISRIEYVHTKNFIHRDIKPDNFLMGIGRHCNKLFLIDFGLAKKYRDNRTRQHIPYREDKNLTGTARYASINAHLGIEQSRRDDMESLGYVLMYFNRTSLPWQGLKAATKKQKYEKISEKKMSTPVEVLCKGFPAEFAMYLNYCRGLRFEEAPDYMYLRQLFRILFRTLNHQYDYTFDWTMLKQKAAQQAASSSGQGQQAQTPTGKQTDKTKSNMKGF

[6] = biological target: Vascular endothelial growth factor receptor 1 (Homo sapiens, UniProt P17948);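 also: measured within a kinome-wide profiling panel, FLT1 as the panel member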
Vascular endothelial growth factor receptor 1, sequence (P17948 whole entry): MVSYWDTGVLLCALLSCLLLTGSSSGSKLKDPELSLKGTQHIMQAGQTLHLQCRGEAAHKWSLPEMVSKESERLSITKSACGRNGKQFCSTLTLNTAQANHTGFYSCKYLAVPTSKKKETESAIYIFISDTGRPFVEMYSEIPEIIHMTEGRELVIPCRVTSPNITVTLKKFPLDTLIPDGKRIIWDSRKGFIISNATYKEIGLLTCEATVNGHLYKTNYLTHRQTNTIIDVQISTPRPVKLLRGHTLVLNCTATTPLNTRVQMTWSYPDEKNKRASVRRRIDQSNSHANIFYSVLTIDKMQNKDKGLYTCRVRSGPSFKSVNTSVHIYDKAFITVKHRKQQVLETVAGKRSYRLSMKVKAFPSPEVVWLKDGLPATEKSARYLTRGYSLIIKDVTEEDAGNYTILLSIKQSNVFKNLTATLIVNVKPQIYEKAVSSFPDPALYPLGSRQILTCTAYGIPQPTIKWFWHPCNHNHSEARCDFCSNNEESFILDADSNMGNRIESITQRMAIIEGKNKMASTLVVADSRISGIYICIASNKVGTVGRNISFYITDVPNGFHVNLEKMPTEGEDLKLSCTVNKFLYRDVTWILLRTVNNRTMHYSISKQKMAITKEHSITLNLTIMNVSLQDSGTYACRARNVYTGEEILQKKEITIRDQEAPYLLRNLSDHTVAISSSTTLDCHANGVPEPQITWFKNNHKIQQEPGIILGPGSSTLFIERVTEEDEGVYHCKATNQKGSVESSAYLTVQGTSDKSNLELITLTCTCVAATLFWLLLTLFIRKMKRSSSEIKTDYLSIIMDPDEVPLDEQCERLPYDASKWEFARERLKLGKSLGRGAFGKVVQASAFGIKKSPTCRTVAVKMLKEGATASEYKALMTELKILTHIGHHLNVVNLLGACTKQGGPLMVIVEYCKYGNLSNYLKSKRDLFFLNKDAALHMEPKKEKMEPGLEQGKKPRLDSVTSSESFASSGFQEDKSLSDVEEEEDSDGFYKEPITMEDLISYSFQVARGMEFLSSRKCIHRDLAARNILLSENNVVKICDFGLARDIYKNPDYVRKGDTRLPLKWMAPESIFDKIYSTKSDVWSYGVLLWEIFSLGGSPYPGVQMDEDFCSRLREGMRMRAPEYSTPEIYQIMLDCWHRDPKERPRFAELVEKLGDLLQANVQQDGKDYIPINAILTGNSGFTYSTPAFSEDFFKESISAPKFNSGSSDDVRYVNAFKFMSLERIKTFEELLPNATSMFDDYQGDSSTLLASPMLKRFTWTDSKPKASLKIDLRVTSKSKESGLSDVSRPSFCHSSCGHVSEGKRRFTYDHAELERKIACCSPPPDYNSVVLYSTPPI

[7] = biological target: Dual specificity protein kinase CLK4 (Homo sapiens, UniProt Q9HAZ1)
Dual specificity protein kinase CLK4, sequence (Q9HAZ1 whole entry): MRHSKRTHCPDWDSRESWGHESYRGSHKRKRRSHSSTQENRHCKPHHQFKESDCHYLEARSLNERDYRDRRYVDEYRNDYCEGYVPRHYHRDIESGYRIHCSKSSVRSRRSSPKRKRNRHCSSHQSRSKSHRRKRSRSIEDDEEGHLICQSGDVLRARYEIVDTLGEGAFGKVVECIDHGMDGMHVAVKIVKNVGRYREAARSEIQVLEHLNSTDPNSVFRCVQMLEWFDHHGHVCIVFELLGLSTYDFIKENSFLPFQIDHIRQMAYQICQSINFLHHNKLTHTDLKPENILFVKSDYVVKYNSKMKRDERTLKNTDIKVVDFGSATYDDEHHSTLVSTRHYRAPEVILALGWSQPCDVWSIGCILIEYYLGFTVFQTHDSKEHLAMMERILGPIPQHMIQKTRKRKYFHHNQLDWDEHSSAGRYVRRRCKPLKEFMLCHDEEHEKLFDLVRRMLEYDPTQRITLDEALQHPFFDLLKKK

[8] = biological target: T1, Apoptotic protease-activating factor 1 (Homo sapiens, UniProt O14727)
T1 sequence (O14727 whole entry): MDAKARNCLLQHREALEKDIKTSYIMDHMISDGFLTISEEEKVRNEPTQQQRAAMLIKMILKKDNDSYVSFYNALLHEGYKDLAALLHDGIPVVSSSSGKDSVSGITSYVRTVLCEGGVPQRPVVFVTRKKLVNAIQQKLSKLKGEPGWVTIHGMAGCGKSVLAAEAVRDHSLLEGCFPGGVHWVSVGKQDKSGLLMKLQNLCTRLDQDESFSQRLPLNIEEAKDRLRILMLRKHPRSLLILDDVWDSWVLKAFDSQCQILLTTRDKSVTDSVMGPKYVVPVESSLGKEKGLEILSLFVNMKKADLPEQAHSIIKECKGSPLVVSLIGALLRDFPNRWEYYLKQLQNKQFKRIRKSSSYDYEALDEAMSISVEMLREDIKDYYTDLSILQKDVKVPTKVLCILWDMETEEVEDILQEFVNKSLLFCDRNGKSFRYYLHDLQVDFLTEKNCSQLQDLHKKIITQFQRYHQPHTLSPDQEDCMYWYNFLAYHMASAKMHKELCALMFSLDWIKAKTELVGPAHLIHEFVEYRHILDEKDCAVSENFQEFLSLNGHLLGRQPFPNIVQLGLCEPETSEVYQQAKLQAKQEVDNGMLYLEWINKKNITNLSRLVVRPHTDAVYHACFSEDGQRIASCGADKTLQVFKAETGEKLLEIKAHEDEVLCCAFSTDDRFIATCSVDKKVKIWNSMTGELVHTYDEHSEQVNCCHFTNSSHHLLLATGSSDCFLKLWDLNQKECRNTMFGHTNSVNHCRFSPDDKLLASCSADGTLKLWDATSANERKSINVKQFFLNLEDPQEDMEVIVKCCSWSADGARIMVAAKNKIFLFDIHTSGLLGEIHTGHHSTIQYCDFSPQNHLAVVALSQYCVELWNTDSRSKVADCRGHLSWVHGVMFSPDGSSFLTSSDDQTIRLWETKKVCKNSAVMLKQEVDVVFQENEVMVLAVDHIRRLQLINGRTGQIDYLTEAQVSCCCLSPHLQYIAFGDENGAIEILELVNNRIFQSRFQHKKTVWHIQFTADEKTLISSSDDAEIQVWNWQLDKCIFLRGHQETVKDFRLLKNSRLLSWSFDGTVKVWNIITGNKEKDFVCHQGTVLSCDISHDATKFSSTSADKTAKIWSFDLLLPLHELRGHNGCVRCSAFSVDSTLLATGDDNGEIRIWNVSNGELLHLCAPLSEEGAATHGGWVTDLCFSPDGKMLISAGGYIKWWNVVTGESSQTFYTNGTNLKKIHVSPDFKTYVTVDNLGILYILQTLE

[9] = biological target: T2, Replicative DNA helicase DnaB (Mycobacterium tuberculosis, UniProt P9WMR3); assay: DnaB intein splicing inhibitors, dose response, biochemical, cell-free fluorescence (AID 449749)
T2 sequence (P9WMR3 whole entry): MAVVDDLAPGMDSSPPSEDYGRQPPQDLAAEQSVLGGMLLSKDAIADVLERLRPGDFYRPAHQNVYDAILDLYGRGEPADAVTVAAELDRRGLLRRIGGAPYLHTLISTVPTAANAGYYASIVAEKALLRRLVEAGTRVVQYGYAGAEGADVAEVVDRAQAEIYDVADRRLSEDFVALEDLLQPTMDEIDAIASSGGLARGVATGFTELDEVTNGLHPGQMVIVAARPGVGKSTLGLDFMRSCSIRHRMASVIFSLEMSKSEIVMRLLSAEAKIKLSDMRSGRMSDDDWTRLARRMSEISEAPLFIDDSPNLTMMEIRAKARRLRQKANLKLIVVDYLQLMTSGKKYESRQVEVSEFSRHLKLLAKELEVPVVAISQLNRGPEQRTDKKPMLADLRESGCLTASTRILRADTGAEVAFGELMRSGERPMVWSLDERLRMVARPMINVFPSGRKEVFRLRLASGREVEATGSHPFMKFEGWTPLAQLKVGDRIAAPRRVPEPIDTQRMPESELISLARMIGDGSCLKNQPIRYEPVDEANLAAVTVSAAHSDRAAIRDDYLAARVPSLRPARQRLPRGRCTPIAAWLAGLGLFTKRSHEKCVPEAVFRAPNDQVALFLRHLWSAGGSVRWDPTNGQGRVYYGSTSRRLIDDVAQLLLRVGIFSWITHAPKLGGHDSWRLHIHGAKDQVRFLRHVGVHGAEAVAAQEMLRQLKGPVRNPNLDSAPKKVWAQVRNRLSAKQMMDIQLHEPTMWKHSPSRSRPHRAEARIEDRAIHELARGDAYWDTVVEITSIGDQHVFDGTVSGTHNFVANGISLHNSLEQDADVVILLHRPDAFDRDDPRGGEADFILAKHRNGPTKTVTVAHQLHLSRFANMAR

Fibroblast growth factor receptor 1, sequence (P11362 whole entry): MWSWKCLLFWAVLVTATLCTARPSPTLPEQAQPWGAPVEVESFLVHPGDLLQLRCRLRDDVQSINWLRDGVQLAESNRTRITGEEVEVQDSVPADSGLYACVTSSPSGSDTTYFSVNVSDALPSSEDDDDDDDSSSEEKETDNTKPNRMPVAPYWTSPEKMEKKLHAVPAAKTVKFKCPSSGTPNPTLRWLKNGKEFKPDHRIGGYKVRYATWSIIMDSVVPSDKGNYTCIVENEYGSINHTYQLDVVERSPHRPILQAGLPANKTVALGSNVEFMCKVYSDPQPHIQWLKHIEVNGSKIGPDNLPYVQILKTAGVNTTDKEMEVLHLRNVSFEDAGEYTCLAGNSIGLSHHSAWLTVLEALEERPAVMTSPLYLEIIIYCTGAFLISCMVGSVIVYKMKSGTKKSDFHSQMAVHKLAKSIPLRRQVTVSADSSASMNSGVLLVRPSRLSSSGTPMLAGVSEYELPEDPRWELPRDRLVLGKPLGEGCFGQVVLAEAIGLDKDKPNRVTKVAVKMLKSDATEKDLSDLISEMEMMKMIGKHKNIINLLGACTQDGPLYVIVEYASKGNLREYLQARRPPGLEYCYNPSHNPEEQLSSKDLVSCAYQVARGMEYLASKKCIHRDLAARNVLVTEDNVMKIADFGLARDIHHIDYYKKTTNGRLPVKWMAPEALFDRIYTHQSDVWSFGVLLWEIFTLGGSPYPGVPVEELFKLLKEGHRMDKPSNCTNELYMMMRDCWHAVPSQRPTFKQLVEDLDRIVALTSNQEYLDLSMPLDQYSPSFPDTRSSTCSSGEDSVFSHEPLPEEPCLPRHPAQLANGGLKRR
Macrophage colony-stimulating factor 1 receptor, sequence (P07333 whole entry): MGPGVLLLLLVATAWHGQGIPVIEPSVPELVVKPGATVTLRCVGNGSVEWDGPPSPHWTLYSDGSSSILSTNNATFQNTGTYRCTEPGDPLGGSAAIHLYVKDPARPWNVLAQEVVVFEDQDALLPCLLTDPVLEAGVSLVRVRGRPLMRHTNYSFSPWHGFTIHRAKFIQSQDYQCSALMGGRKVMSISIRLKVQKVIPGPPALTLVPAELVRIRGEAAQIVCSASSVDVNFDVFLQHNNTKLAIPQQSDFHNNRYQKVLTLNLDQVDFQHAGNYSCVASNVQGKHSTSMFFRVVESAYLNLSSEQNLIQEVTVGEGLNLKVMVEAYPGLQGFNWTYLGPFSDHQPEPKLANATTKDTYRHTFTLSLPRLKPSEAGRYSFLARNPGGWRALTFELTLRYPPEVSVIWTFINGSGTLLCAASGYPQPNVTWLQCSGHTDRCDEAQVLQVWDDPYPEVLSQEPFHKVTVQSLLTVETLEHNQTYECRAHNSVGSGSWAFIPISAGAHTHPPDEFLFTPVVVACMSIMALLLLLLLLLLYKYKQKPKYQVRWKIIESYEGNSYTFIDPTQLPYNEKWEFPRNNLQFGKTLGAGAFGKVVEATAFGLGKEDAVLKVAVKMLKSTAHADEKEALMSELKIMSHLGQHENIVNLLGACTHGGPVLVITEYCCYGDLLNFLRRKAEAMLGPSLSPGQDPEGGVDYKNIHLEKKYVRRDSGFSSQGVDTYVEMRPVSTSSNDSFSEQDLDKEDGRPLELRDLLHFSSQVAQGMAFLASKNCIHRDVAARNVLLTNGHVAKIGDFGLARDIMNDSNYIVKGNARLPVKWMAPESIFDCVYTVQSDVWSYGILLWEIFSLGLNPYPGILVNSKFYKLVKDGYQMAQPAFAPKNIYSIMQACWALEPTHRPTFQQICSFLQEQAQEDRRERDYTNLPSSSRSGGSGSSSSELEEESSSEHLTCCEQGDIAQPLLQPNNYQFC
5'-AMP-activated protein kinase catalytic subunit alpha-1, sequence (Q13131 whole entry): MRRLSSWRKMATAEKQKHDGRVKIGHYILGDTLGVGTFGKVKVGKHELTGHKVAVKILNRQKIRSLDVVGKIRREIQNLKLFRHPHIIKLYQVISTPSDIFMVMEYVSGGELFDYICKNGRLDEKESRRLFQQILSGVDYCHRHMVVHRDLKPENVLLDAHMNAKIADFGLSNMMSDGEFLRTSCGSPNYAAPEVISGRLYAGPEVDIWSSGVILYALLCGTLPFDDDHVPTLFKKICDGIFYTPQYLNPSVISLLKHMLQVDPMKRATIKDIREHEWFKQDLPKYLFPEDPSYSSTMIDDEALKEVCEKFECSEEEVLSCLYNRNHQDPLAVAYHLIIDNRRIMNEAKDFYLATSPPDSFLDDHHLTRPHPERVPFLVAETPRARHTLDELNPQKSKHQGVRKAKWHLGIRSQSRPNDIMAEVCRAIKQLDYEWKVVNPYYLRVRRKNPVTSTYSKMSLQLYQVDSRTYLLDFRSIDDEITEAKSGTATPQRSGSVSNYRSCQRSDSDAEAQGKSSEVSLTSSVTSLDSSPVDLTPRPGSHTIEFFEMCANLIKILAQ

Row | SMILES | Ki [1] | Ki [2] | Ki [3] | Ki [4] | Ki [5] | Ki [6] | Ki [7] | IC50 [8] | AC50 [9]
1 | O=C(Nc1cccc(C(F)(F)F)n1)Nc1ccnc2cc(OC(F)F)ccc12 | > 3.98 µM (inactive) | > 2.51 µM (inactive) | > 3.16 µM (inactive) | > 3.98 µM (inactive) | > 3.98 µM (inactive) | > 3.98 µM (inactive) | – | – | –
2 | O=C(Nc1cccc(C(F)(F)F)n1)Nc1ccnc2cc(Cl)ccc12 | > 3.98 µM (inactive) | > 2.51 µM (inactive) | > 3.16 µM (inactive) | > 3.98 µM (inactive) | > 3.98 µM (inactive) | > 3.98 µM (inactive) | 1.26 µM (active) | – | –
3 | O=C(Cc1ccccc1)NC1(O)C(=O)c2ccccc2C1=O | – | – | – | – | – | – | – | 11 µM (active) | 6.13 µM (active)
4 | COC(=O)c1nc(-c2ccc3c(n2)C(=O)C(=N)C(OC)=C3O)c(N)c(-c2ccc(OC)c(OC)c2O)c1C | – | – | – | – | – | – | – | 3.39 µM (active) | > 380 µM (inconclusive)
5 | Cc1cc(C)c(S(=O)(=O)/N=C2\C=C(Nc3ccc(C(=O)O)cc3)C(=O)c3ccccc32)c(C)c1 | – | – | – | – | – | – | – | 6.01 µM (active) | 0.149 µM (active)
6 | CCC1CC(NS(=O)(=O)C2CC2)CC1c1ncc2cnc3[nH]ccc3n12 (stereo not drawn) | 1.26 µM (active) | 1.58 µM (active) | 2 µM (active) | > 3.98 µM (inactive) | > 3.98 µM (inactive) | > 3.98 µM (inactive) | > 1.58 µM (inactive) | – | –
7 | O=c1[nH]c2cc(Br)cnc2[nH]1 | 50.1 µM (active) | > 100 µM (inactive) | 25.1 µM (active) | 25.1 µM (active) | 6.31 µM (active) | 10 µM (active) | 1.26 µM (active) | – | –

Reference: ChEMBL document CHEMBL1201862, “PubChem BioAssay data set” (2004)
